Earlier results in patent US11759428B2, “Pharmaceutical formulation comprising esomeprazole and sodium bicarbonate” (CHONG KUN DANG PHARMACEUTICAL CORP., priority 2018, dated 2023).

Conditions: aqueous solution having 3 or lower of pH

Which degradation half-life does the source give for COc1ccc2nc([S@@+]([O-])Cc3ncc(C)c(OC)c3C)[nH]c2c1 [esomeprazole, (S)-5-methoxy-2-[(4-methoxy-3,5-dimethyl-2-pyridinyl)-methyl]sulfinyl-1H-benzimid azol] here?
Its degradation half-life is “less than 10 minutes”.
